# Like-named read-outs stand apart in the source and are kept apart here.
# Tests used:
# [1] = Phase 1 ABPM study, pharmacokinetics; assay type: in vivo, human
# Method: This was a Phase 1, randomized, double-blind, placebo-controlled, repeat dose, 2-period cross-over study to investigate the effect of BIIB074 300-400 mg bid on ambulatory blood pressure (ABP) in healthy participants (FIG. 2). The study comprised: screening (to occur a maximum of 30 days before the first baseline assessment); two 36-day treatment periods, each preceded by a baseline visit and separated by a 7-day washout (to minimize possible carry over effects); and a follow-up period of 7-14 days after last dose. Prior to this study, no females had received BIIB074; for this reason, a single dose BIIB074 session at the dose level of 400 mg was also conducted in female participants one week prior to the period 1 baseline visit. Following this session, some participants were predicted to exceed the predefined PK limit (area under the plasma concentration-time curve [AUC] 97 μg·h/mL) when receiving 400 mg bid at steady state. Therefore, in the subsequent phases of the study, all female participants received a lower dose of 300 mg bid (males received 400 mg bid).
# The primary endpoint was change in 24 h average SBP and DBP from baseline to day 36 as determined by ABPM. Secondary outcome measures included: change in 24 h average SBP and DBP from baseline to days 4 and 15; change in average SBP and DBP within a 12 h dosing interval from baseline to days 14 and 35 (inpatient); change in 24 h average ambulatory heart rate from baseline to days 4, 15 and 36; proportion of participants whose 24 h SBP and DBP increased by <5, 5-9, 10-14, 15-19, and >20 mm Hg compared with baseline; PK parameters of BIIB074 following a single oral dose in healthy female participants, and following repeated oral doses given twice daily to healthy male and female participants; PK/pharmacodynamic (PD) analyses to examine the correlation between ABP and plasma levels and/or metrics of the systemic exposure of BIIB074.
# ABPM data were analyzed using a repeated measures mixed effects model, whereby fixed effects were treatment, day, treatment*day, period, average baseline*day, period adjusted baseline*day, sex and treatment*sex; random effect was subject; and repeated effect was day. All summary statistics were carried out using SAS 8.02 for UNIX running under the Harmonisation of Analysis and Reporting Program (HARP) environment. PK parameters were calculated by standard non-compartmental analysis according to working practices and using Win Nonlin Pro v. 5.2.
# The safety population was the primary analysis population for this study and included all participants who received one or more doses of BIIB074. The PK population was defined as participants in the safety population for whom a PK sample was obtained and analyzed.
# dogs = assay: Preclinical safety pharmacology, cardiovascular parameters; assay type: in vivo, dog; settings: data not shown
# Source text: The 36 day treatment duration in this study was rationally designed to determine whether tolerance developed for any potential effects of BIIB074 on SBP or DBP, since BP effects resolved by day 28 in the earlier phase 1 trial. The data from this study show a slight trend towards a decrease in the BP difference between BIIB074 and placebo between day 4 and day 35, although differences were minimal at all time points. […] Thus, the body of evidence, encompassing clinical and preclinical studies, supports safety and minimal effects of BIIB074 on BP/cardiovascular parameters.
# [2] = Phase 1 study of effect of UGT inhibition by valproic acid on PK of BIIB074; assay type: in vivo, human; settings: for AUC(0-inf) / AUC(0-t) / Cmax: human, plasma, oral; for AUC(0-inf): read-out: AUCinf, Geo LS mean; for AUC(0-t): read-out: AUClast, Geo LS mean; for Cmax: read-out: Cmax, Geo LS mean
# Source text: In clinical practice BIIB074 may be coadministered with UGT inhibitors, which could potentially increase exposure to BIIB074 by reducing the extent of BIIB074 metabolism by UGTs. Valproic acid, which has long been used as a medication to treat seizures and bipolar disorder, is a non specific inhibitor of UGTs and has been used as a probe to determine the effect of UGT inhibition on the PK of compounds that are metabolized by multiple UGTs. Herein, the potential of the UGT inhibitor valproic acid to alter the single dose PK, safety, and tolerability of BIIB074 was assessed to inform the feasibility and safety of coadministration of BIIB074 with compounds known to inhibit UGTs.
# • To evaluate the effect of multiple doses of the uridine diphosphate glucuronosyltransferase (UGT) inhibitor valproic acid on the single dose PK of BIIB074. • The primary endpoints that relate to this objective are: maximum observed concentration (Cmax), area under the curve (AUC) from time 0 to infinity (AUCinf), and AUC from time 0 to time of the last measurable concentration (AUClast) for BIIB074. • Other endpoints that relate to the primary objective are the time to reach Cmax (Tmax), time of the last measurable concentration (Tlast), t1/2 apparent clearance (CL/F), and apparent volume of distribution (V/F) for BIIB074.
# [3] = BIIB074 with valproic acid/BIIB074 alone
# [4] = single dose BIIB074 with valproic acid
structure (smiles),measurement,setting,value
"Cl.NC(=O)[C@@H]1CC[C@H](c2ccc(OCc3ccccc3F)cc2)N1 [Example 1, (5R)-5-(4-{[(2-Fluorophenyl)methyl]oxy}phenyl)-L-prolinamide hydrochloride]",AUCex,"[1]; 400 mg single dose, female",15.2%
same,tmax,"[1]; Day 1, 300 mg bid, female",1.50 h
same,tmax,"[1]; Day 14, 300 mg bid, female",1.50 h
same,AUC(0-12),"[1]; Day 14, 400 mg bid, male",32100 (23.5) ng · h/mL
same,Cmax,"[1]; Day 35, 300 mg bid, female",3990 (26.6) ng/mL
same,AUC(0-24) in males (400 mg bid) higher than in females (300 mg bid),"[1]; days 14 and 35, on average",10%
same,Cmax in males (400 mg bid) higher than in females (300 mg bid),"[1]; days 14 and 35, on average",11-19%
same,Dose-normalized AUC lower in male than in female participants,"[1]; repeat dosing, days 14 and 35",17-18%
same,Dose-normalized Cmax lower in male than in female participants,"[1]; repeat dosing, days 14 and 35",11-17%
same,Effects on cardiovascular parameters,dogs,no effects
same,"AUCinf, Geo LS mean ratio",[2]; [3],1.68
same,"AUClast, Geo LS mean ratio",[2]; [3],1.69
same,"Cmax, Geo LS mean ratio",[2]; [3],0.97
same,AUC(0-inf),[2]; single dose BIIB074 alone,16000 ng·h/mL
same,AUC(0-t),[2]; single dose BIIB074 alone,15700 ng·h/mL
same,Cmax,[2]; single dose BIIB074 alone,1310 ng/mL
same,AUC(0-inf),[2]; [4],26900 ng·h/mL
same,AUC(0-t),[2]; [4],26500 ng·h/mL
same,Cmax,[2]; [4],1260 ng/mL
same,Elimination with valproic acid,[2]; in vivo,prolonged
same,Exposure (AUC) with valproic acid compared to BIIB074 alone,[2]; in vivo,increased
same,Exposure based on AUCinf and AUClast higher with valproic acid than alone,[2]; in vivo,~70%
same,Change in Cmax with valproic acid compared to BIIB074 alone,"[2]; in vivo, listed as BIIB074, hydrochloride",no change
same,Plasma exposure higher with valproic acid at steady state than alone,[2]; single dose,approximately 1.7 fold

# From US20210154170A1, “METHODS OF TREATING NEUROPATHIC PAIN” (Biogen MA Inc., priority 2018, published 2021)
